Consider eleven compounds from article PMC4503722, “Novel Phenotypic Outcomes Identified for a Public Collection of Approved Drugs from a Publicly Accessible Panel of Assays” (PLoS ONE, 2015).

In assay [1] the test system is endothelial tube formation in co-cultures of ECFCs and ADSCs treated with VEGF. Description: cells. In kind it is cell-based, human.
The subject of another assay is NCI-H716 cells. Description: cells. The format is cell-based, Human.
The test system of a further assay is STC-1 cell line. The format is cell-based, mouse.
The next assay deals with HeLa cells. The assay can be described thus: cells. In kind it is cell-based. As to conditions: for Hela CellCycMod PI 2N IC50/EC50: assay number 14; for Hela CellCycMod PI 4N IC50/EC50: assay number 16; for Hela CellCycMod PI MI IC50/EC50: assay number 17; for Hela CellCycMod PI Cell Number IC50/EC50: assay number 18.
Assay [2] deals with ECFC/ADSC co-culture cell nuclei number.
The subject of another assay is DLD-1. The assay can be described thus: cells. The format is cell-based.
The next assay relates to SW480. Description: cells. In kind it is cell-based.
For another assay, the system named is HCT116. Description: cells. In kind it is cell-based.
Another assay relates to Colo320. Description: cells. The format is cell-based.
The subject of the next assay is RKO. Description: cells. The format is cell-based.
Another assay has as its system SNU-C1. The assay can be described thus: cells. In kind it is cell-based.

Where two headings read alike, the source gives them in different places.

As for `Clc1ccccc1C(c1ccccc1)(c1ccccc1)n1ccnc1` [NCGC00015251-13], the “IC50/EC50, VEGF_ADSC\ECFC Angio CD31 TubeArea (assay number 2)” value in assay [1] was found to be 3.0384 µM. For the same compound, in the assay with NCI-H716 cells (concentration response), the “IC50/EC50, hNCI-H716 GLP1 Secretion (assay number 12)” value turned out to be 20.2249 µM. In the assay with STC-1 cell line (concentration response), the “IC50/EC50, mSTC-1 GLP1 Secretion (assay number 13)” value was greater than 40 µM. In addition, the “IC50/EC50, Hela CellCycMod PI 2N (assay number 14)” value in the assay on HeLa cells (2N) is greater than 10 µM. Further, the “IC50/EC50, Hela CellCycMod PI 4N (assay number 16)” value with HeLa cells (4N) is greater than 10 µM. In the assay on HeLa cells (Cell Number), the “IC50/EC50, Hela CellCycMod PI Cell Number (assay number 18)” value is on record as greater than 10 µM. Also, in the assay with HeLa cells (MI), the “IC50/EC50, Hela CellCycMod PI MI (assay number 17)” value is on record as greater than 10 µM. The “IC50/EC50, Hela CellCycMod PI S Phase (assay number 15)” value with HeLa cells (S Phase) was greater than 10 µM. For the same compound, the “IC50/EC50, VEGF_ADSC\ECFC Angio Hoechst NucArea (assay number 3)” value in assay [2] was greater than 10 µM.
In the case of `C[n+]1cc2c3c(ccc2c2ccc4cc5c(cc4c21)OCO5)OCO3` [NCGC00015959-09], the “VEGF_ADSC\ECFC Angio CD31 TubeArea IC50/EC50” value in assay [1] was 0.5372 µM. The “hNCI-H716 GLP1 Secretion IC50/EC50” value in the assay on NCI-H716 cells is listed as greater than 40 µM. Also, the “mSTC-1 GLP1 Secretion IC50/EC50” value in the assay with STC-1 cell line is given as greater than 40 µM. For the same compound, the “Basal_Viability ATP DLD-1 IC50/EC50” value with DLD-1 is 0.5755 µM. Further, the “Basal_Viability ATP SW480 IC50/EC50” value in the assay on SW480 came to 0.3789 µM. Further, the “Basal_Viability ATP HCT116 IC50/EC50” value in the assay on HCT116 is reported as 0.5253 µM. In addition, the “Basal_Viability ATP Colo 320 IC50/EC50” value in the assay on Colo320 stood at 0.3498 µM. Also, in the assay with RKO, the “Basal_Viability ATP RKO IC50/EC50” value worked out at 0.2646 µM. In addition, the “Basal_Viability ATP SNU-C1 IC50/EC50” value in the assay with SNU-C1 was 0.3161 µM. Further, the “VEGF_ADSC\ECFC Angio Hoechst NucArea IC50/EC50” value in assay [2] turned out to be 0.9705 µM.
On to `CCCCCCCCCCCCCCCC[N+](C)(C)CCN(Cc1ccc(OC)cc1)c1ncccn1.[Br-]` [NCGC00016507-05], for which, in assay [1], the “VEGF_ADSC\ECFC Angio CD31 TubeArea IC50/EC50” value is given as 3.0741 µM. Also, the “hNCI-H716 GLP1 Secretion IC50/EC50” value in the assay on NCI-H716 cells (assay number 12) was found to be 17.7844 µM. Also, in the assay with STC-1 cell line (assay number 13), the “mSTC-1 GLP1 Secretion IC50/EC50” value was greater than 40 µM. The “Hela CellCycMod PI 2N IC50/EC50” value with HeLa cells (2N) is recorded as greater than 10 µM. In addition, in the assay on HeLa cells (4N), the “Hela CellCycMod PI 4N IC50/EC50” value was greater than 10 µM. Also, the “Hela CellCycMod PI MI IC50/EC50” value in the assay with HeLa cells (MI) is greater than 10 µM. Further, in the assay on HeLa cells, the “Hela CellCycMod PI Cell Number IC50/EC50” value was found to be 0.3488 µM. In assay [2], the “VEGF_ADSC\ECFC Angio Hoechst NucArea IC50/EC50” value is on record as greater than 10 µM.
For `Cc1cc(C(C)(C)CC(C)(C)C)ccc1OCCOCC[N+](C)(C)Cc1ccccc1` [NCGC00016789-06], in assay [1], the “VEGF_ADSC\ECFC Angio CD31 TubeArea IC50/EC50” value is recorded as greater than 10 µM. The “hNCI-H716 GLP1 Secretion IC50/EC50” value in the assay with NCI-H716 cells (assay number 12) was 12.042 µM. Also, the “mSTC-1 GLP1 Secretion IC50/EC50” value in the assay with STC-1 cell line (assay number 13) was greater than 40 µM. In addition, the “VEGF_ADSC\ECFC Angio Hoechst NucArea IC50/EC50” value in assay [2] is on record as 8.703 µM.
As for `COc1cc2nc(N3CCN(C(=O)C4COc5ccccc5O4)CC3)nc(N)c2cc1OC.CS(=O)(=O)O` (stereo not shown) [NCGC00018158-09], the “VEGF_ADSC\ECFC Angio CD31 TubeArea IC50/EC50” value in assay [1] is reported as greater than 10 µM. Moreover, the “hNCI-H716 GLP1 Secretion IC50/EC50” value in the assay on NCI-H716 cells (assay number 12) is greater than 40 µM. In the assay with STC-1 cell line (assay number 13), the “mSTC-1 GLP1 Secretion IC50/EC50” value was determined as 10.6547 µM. In addition, in assay [2], the “VEGF_ADSC\ECFC Angio Hoechst NucArea IC50/EC50” value is given as greater than 10 µM.
As to `Clc1ccc(CSC(Cn2ccnc2)c2ccc(Cl)cc2Cl)cc1.O=[N+]([O-])O` (stereo not shown) [NCGC00018250-06], in [1], the “VEGF_ADSC\ECFC Angio CD31 TubeArea IC50/EC50” value came out at 2.1282 µM. In addition, in the assay on NCI-H716 cells (assay number 12), the “hNCI-H716 GLP1 Secretion IC50/EC50” value was 20.9915 µM. Moreover, the “mSTC-1 GLP1 Secretion IC50/EC50” value with STC-1 cell line (assay number 13) is reported as greater than 40 µM. In assay [2], the “VEGF_ADSC\ECFC Angio Hoechst NucArea IC50/EC50” value worked out at 8.757 µM.
Regarding `CC[C@H](C)C(=O)O[C@H]1C[C@@H](C)C=C2C=C[C@H](C)[C@H](CC[C@@H]3C[C@@H](O)CC(=O)O3)[C@H]21` [NCGC00023509-13], the “VEGF_ADSC\ECFC Angio CD31 TubeArea IC50/EC50” value in [1] is given as 3.2658 µM. Also, the “hNCI-H716 GLP1 Secretion IC50/EC50” value with NCI-H716 cells (assay number 12) worked out at 32.895 µM. Besides, in the assay on STC-1 cell line (assay number 13), the “mSTC-1 GLP1 Secretion IC50/EC50” value was greater than 40 µM. Further, in the assay with HeLa cells (2N), the “Hela CellCycMod PI 2N IC50/EC50” value was greater than 10 µM. Besides, the “Hela CellCycMod PI S Phase IC50/EC50” value in the assay with HeLa cells (assay number 15, S phase) is greater than 10 µM. In addition, the “Hela CellCycMod PI 4N IC50/EC50” value with HeLa cells (4N) is listed as greater than 10 µM. Further, the “Hela CellCycMod PI MI IC50/EC50” value in the assay with HeLa cells (MI) is reported as greater than 10 µM. Moreover, the “Hela CellCycMod PI Cell Number IC50/EC50” value with HeLa cells is greater than 10 µM. The “VEGF_ADSC\ECFC Angio Hoechst NucArea IC50/EC50” value in assay [2] was greater than 10 µM.
`[O-][S+](c1cc(Cl)cc(Cl)c1O)c1cc(Cl)cc(Cl)c1O` [NCGC00160554-02]: in assay [1], the “VEGF_ADSC\ECFC Angio CD31 TubeArea IC50/EC50” value was greater than 10 µM. For the same compound, in the assay on NCI-H716 cells (assay number 12), the “hNCI-H716 GLP1 Secretion IC50/EC50” value worked out at 19.7164 µM. In the assay on STC-1 cell line (assay number 13), the “mSTC-1 GLP1 Secretion IC50/EC50” value is given as greater than 40 µM. In addition, the “VEGF_ADSC\ECFC Angio Hoechst NucArea IC50/EC50” value in assay [2] is greater than 10 µM.
For `CC(C)(C)CC(C)(C)c1ccc(O)cc1` [NCGC00164127-07], the “VEGF_ADSC\ECFC Angio CD31 TubeArea IC50/EC50” value in [1] is greater than 10 µM. Further, the “hNCI-H716 GLP1 Secretion IC50/EC50” value in the assay with NCI-H716 cells (assay number 12) turned out to be 25.8625 µM. Besides, in the assay with STC-1 cell line (assay number 13), the “mSTC-1 GLP1 Secretion IC50/EC50” value amounted to 8.3699 µM. Also, the “VEGF_ADSC\ECFC Angio Hoechst NucArea IC50/EC50” value in assay [2] came to 9.1112 µM.
Take `CCCCCCCC/C=C\CCCCCCCCN` [NCGC00164329-03]: in assay [1], the “VEGF_ADSC\ECFC Angio CD31 TubeArea IC50/EC50” value is recorded as greater than 10 µM. Further, the “hNCI-H716 GLP1 Secretion IC50/EC50” value in the assay with NCI-H716 cells (assay number 12) was found to be 14.7555 µM. Also, the “mSTC-1 GLP1 Secretion IC50/EC50” value in the assay on STC-1 cell line (assay number 13) is greater than 40 µM. Further, in assay [2], the “VEGF_ADSC\ECFC Angio Hoechst NucArea IC50/EC50” value amounted to 9.128 µM.
The corresponding values for `CC(O)C(=O)O.CCCCCCCCCCCCCCNCCO` [NCGC00164503-02] are greater than 10 µM, 13.5546 µM, greater than 20 µM and 9.1871 µM.
